Assay results reported in patent US10052415B2, “Tropoelastin for promoting endothelial cell adhesion or migration” (University of Utah Research Foundation, priority 2005, dated 2018).
Ends that are not written are not given here.

Legend:
Assay type in all cases: cell-based
[1] = test system: human aortic endothelial cells (HuAEC); assay: Boyden chamber migration assay, HuAEC; conditions: FIG. 3; for migration of HuAECs: 200 ng/ml Tropoelastin, 10 μM peptides, BSA control
Experimental: Migration of HuAECs to BSA, fibronectin, and recombinant tropoelastin was measured.
We assayed the hexamer VGVAPG (SEQ ID No. 5). This hexameric sequence is repeated multiple times within the full length tropoelastin protein. […] We additionally assayed a 17 residue C-terminal fragment of the tropoelastin protein. This 17 amino acid residue is depicted in SEQ ID NO: 6 (IFPGGACLGKACGRKRK).
(§1) Briefly, 16 h before the assay, 70% confluent 75 cm^2 flasks of human melanoma A2058 cell (ATCC, passage 3-12) or human aortic endothelial cells (HAEC; Cambrex, passage 4-7) were kept in basal media (dMEM+0.1% BSA, or EBM-2+1% FCS, respectively). Cells were lifted with 0.25% Trypsin/1 mM EDTA, diluted in 0.5% BSA (dMEM) and washed 3 times in basal media (dMEM+0.1% BSA) or (EBM-2+0.1% FCS,) and recovered in suspension at working density (2×10^6/ml for A2058 or 1.5×10^6 HAEC) for 1 h at 37° C. (5% CO2). For migration-inhibition assays, the cells were preincubated during the recovery period for 30 minutes in 25 μg/ml anti-integrin antibodies (Chemicon, Temecula, Calif.) or control IgG (Jackson ImmunoResearch, Inc.). All migration assays were performed in triplicate in a 48-well Boyden chamber apparatus (NeuroProbe, Cabin John, Md.). The recovered cells were added to the bottom chambers in a volume of 30 μl. The wells were overlayed with an 8 μm-pore polycarbonate membrane (NeuroProbe, Cabin John, Md.) and coated with 100 μg/ml Rat tail collagen (Trevigen, Gaithersburg, Md.) for A2058 cells or acetylated 1% gelatin from porcine skin (Sigma, St. Louis, Mo.) for HAEC. The apparatus was assembled and stored inverted at 37° C. (5 CO2) for a 2 h adhesion-period. The apparatus was re-inverted and 52 μl of the chemoattractants, 10 mg/ml Fibronectin, 200 ng/ml Tropoelastin, 10 μM elastin-derived peptides; VGVAPG (SEQ ID No. 5), and IFPGGACLGKACGRKRK (SEQ ID No. 6 (Cterm peptide) or 0.1% BSA/dMEM (diluent, random migration control), were added to the upper chambers and the migration was allowed to proceed for 2 h in a humidified incubator at 37° C. (5% CO2). The membranes were then removed, fixed in methanol, stained with a Hema 3 stain set (Fisher Scientific, Pittsburgh, Pa.) and mounted migrated-side down to a 50×75 mm glass slide. Before 90% mounting medium (in xylenes) was applied, the non-migrated cells were removed from the exposed, non-migrated face of the membrane with a moistened swab. Readings represent the number of cells migrating through the membrane (the sum of two high power X 20 fields/well, averaged for each sextuplicate-well set).

[2] = test system: A2058 human melanoma cells; assay: Boyden chamber migration assay, A2058 cells; conditions: FIG. 5
Experimental: as §1, with “The apparatus was re-inverted and 52 μl of the chemoattractants, 10 mg/ml Fibronectin, 200 ng/ml Tropoelastin, 10 μM elastin-derived peptides; VGVAPG (SEQ ID No. 5), and IFPGGACLGKACGRKRK (SEQ ID No. 6 (Cterm peptide) or 0.1% BSA/dMEM (diluent, random migration control), were added to the upper chambers and the migration was allowed to proceed for 2 h in a humidified incubator at 37° C. (5% CO2). The membranes were then removed, fixed in methanol, stained with a Hema 3 stain set (Fisher Scientific, Pittsburgh, Pa.) and mounted migrated-side down to a 50×75 mm glass slide. Before 90% mounting medium (in xylenes) was applied, the non-migrated cells were removed from the exposed, non-migrated face of the membrane with a moistened swab.” left out

[3] = test system: A2058 human melanoma cells; assay: Cell adhesion assay, A2058 cells; conditions: for adhesion of A2058 cells in comparison to BSA: FIG. 4, coated substrates, peptide 10 μM
Experimental: A2058 cells were assayed for adherence to substrates coated with BSA (control), fibronectin, tropoelastin, or a bioactive fragment of tropoelastin corresponding to a single repeat of the hexameric sequence VGVAPG (SEQ ID No. 5). In comparison to adherence to BSA, A2058 cells adhered to substrates coated with fibronectin tropoelastin, or a bioactive fragment of tropoelastin.
(§2) Cells were harvested with 0.25% trypsin/1 mM EDTA, washed three times in adhesion buffer (0.5% BSA in basal medium), suspended at a working density of 5×10^5/ml in adhesion buffer, and then allowed to recover for 1 h at 37° C. (5% CO2). For integrin-blocking assays, 25 μg/ml anti-integrin antibodies (Chemicon, Temecula, Calif.) or control IgG (Jackson ImmunoResearch Laboratories, Inc, West Grove, Pa.) were added to the cell suspension during the recovery period. During the cell recovery, the coated 96-well plates were washed twice in dPBS and blocked for 1 h at 25° C. in 5.0% BSA (dPBS). The blocking solution was removed, and the wells were washed twice in dPBS. Recovered cells were added to the coated wells in a volume of 100 μl per well and placed at 37° C. for 30 minutes (5% CO2). Following this incubation, the assay plate was inverted and assay wells were washed twice with 100 μl dPBS to remove non-specifically adhered cells. The wells were then fixed in Zamboni fixative, stained with Gill 1 hematoxylin, and overlayed with 80% glycerol. The assay was imaged at 100× magnification, capturing 3 random fields/well on a Zeiss Axiovert 200 inverted microscope equipped with a Zeiss Axiocam digital camera. Readings represent the number of adherent cells/well (average six high powered 100× fields, three taken from each of two separate wells).

[4] = test system: human aortic endothelial cells (HuAEC); assay: Cell adhesion assay on coated culture plates, HuAEC; conditions: culture plates coated with 10 ug/ml protein; 0.1% BSA control
Experimental: (§3) Cells were plated on culture plates coated with either 0.1% BSA (as a control), 10 ug/ml fibronectin (FN), or 10 ug/ml recombinant tropoelastin, and assayed for adherence to the coated substrate.
as §2, with “96-well plates were coated in duplicate overnight at 4° C. with 10 μg/ml collagen, fibronectin, tropoelastin, or 0.1% bovine serum albumin (BSA). Cells” for “Cells”

[5] = test system: human embryonic kidney cells (HEK 293); assay: Cell adhesion assay on coated culture plates, HEK 293 cells; conditions: culture plates coated with 10 ug/ml protein; 0.1% BSA control
Experimental: as §3
as §2, with “96-well plates were coated in duplicate overnight at 4° C. with 10 μg/ml collagen, fibronectin, tropoelastin, or 0.1% bovine serum albumin (BSA). Cells” for “Cells”, “Following this incubation, the assay plate was inverted and assay wells were washed twice with 100 μl dPBS to remove non-specifically adhered cells. The wells were then fixed in Zamboni fixative, stained with Gill 1 hematoxylin, and overlayed with 80% glycerol. The assay was imaged at 100× magnification, capturing 3 random fields/well on a Zeiss Axiovert 200 inverted microscope equipped with a Zeiss Axiocam digital camera.” left out

CHO cells = assay: Cell adhesion assay on coated culture plates, CHO cells; conditions: culture plates coated with 10 ug/ml protein; 0.1% BSA control
Experimental: as §3
as §2, with “96-well plates were coated in duplicate overnight at 4° C. with 10 μg/ml collagen, fibronectin, tropoelastin, or 0.1% bovine serum albumin (BSA). Cells” for “Cells”, “Following this incubation, the assay plate was inverted and assay wells were washed twice with 100 μl dPBS to remove non-specifically adhered cells. The wells were then fixed in Zamboni fixative, stained with Gill 1 hematoxylin, and overlayed with 80% glycerol. The assay was imaged at 100× magnification, capturing 3 random fields/well on a Zeiss Axiovert 200 inverted microscope equipped with a Zeiss Axiocam digital camera.” left out

[6] = test system: human aortic smooth muscle cells (HuAoSMC); assay: Cell adhesion assay on coated culture plates, HuAoSMC; conditions: culture plates coated with 10 ug/ml protein; 0.1% BSA control
Experimental: as §3
as §2, with “96-well plates were coated in duplicate overnight at 4° C. with 10 μg/ml collagen, fibronectin, tropoelastin, or 0.1% bovine serum albumin (BSA). Cells” for “Cells”, “Following this incubation, the assay plate was inverted and assay wells were washed twice with 100 μl dPBS to remove non-specifically adhered cells. The wells were then fixed in Zamboni fixative, stained with Gill 1 hematoxylin, and overlayed with 80% glycerol. The assay was imaged at 100× magnification, capturing 3 random fields/well on a Zeiss Axiovert 200 inverted microscope equipped with a Zeiss Axiocam digital camera.” left out

For “IFPGGACLGKACGRKRK (chemically synthesized bioactive fragment of tropoelastin) [C-terminal fragment]”, the “level of HuAEC migration relative to comparator” value [1] was “at least as well as, and possibly better than, the fall length tropoelastin protein”, the “migration of HuAECs” value [1] was “promoted migration of endothelial cells” and the “level of A2058 migration compared among tropoelastin and fragments” value [2] was “promoted migration of A2058 cell at comparable levels”.

With VGVAPG the “level of A2058 adhesion relative to full length tropoelastin” value ([3]; 10 μM of a single repeat of the hexameric sequence) was “at a level similar to 10 μg/ml of full length tropoelastin”, the “adhesion of A2058 cells in comparison to BSA” value [3] was “promoted adhesion of A2058 cells” and the “level of HuAEC migration relative to comparator” value [1] was “at least as well as, and possibly better than, the fall length tropoelastin protein”. The “migration of HuAECs” value [1] was “promoted migration of endothelial cells” and the “level of A2058 migration compared among tropoelastin and fragments” value [2] was “promoted migration of A2058 cell at comparable levels”.

In the case of fibronectin [reference compound], the “adhesion of HuAEC to the coated substrate” value [4] is reported as “adhered to fibronectin”, the “adhesion of HEK 293 cells to the coated substrate” value [5] is reported as “adhered to fibronectin” and the “adhesion of CHO cells to the coated substrate” value (CHO cells) is reported as “adhered to fibronectin”. For the same substance, the “adhesion of A2058 cells in comparison to BSA” value [3] was “adhered” and the “adhesion of HuAoSMC to the coated substrate” value [6] was “adhered to fibronectin”.
